Measurements reported in US20180303812A1, “PHARMACEUTICAL COMPOSITION FOR USE IN TREATING AML AND METHOD OF TREATING AML IN A SUBJECT IN NEED THEREOF” (DAIICHI SANKYO COMPANY, LIMITED, priority 2015, published 2018).

Legend:
[1] = test system: AML samples (mononuclear cells from peripheral blood or bone marrow of AML patients); test: Ex vivo treatment of primary AML patient samples; live cells by annexin V / propidium iodide binding assays; format: cell-based, human
Protocol: Leukemia samples isolated from peripheral blood or bone marrow of patients with newly diagnosed or relapsed/refractory AML were treated using the test compound as described below.
Heparinized peripheral blood and bone marrow samples containing more than 1.6×10^7 mononuclear cells were obtained from AML patients with newly diagnosed or relapsed/refractory AML, after informed consent according to the University of Texas MD Anderson Cancer Center (MDA, Houston, Tex., USA) guidelines in accordance with the Declaration of Helsinki. In each sample, the blast counts (blast %) was determined from routine morphological differential counts by clinical laboratory technicians, confirmed by hematopathologists at MDA (usually 500 cells were counted). […]
Mononuclear cells were purified by density-gradient centrifugation. The cells were cultured in RPMI 1640 medium containing 10% fetal bovine serum and were treated ex vivo for 48 hours with the test compound (0, 25, 50, 100, 250, 500, or 1000 nM), and live cell numbers were determined by apoptosis analysis using annexin V and propidium iodide (PI, purchased from Sigma-Aldrich) binding assays. Annexin V- and PI-negative cells were counted as live cells. Apoptosis was quantified as the proportion of annexin V-positive cells, and specific apoptosis was calculated by the following formula: % specific apoptosis=(test−control)×100/(100−control). […]

[2] = test system: AML; conditions: AML patients; cited from earlier work

Row | SMILES | leukemia cells induce apoptosis ([1]; in other samples) | leukemia cells induced apoptosis ([1]; in some of the samples, at a higher concentration) | clinical response [2]
1 | CC1(C)CCC2(CC1)N[C@@H](C(=O)N[C@@H]1CC[C@@H](C(N)=O)OC1)[C@H](c1ccnc(Cl)c1F)[C@]21C(=O)Nc2cc(Cl)ccc21.Cc1ccc(S(=O)(=O)O)cc1 [Compound 2, (3′R,4′S,5′R)—N-[(3R,6S)-6-carbamoyltetrahydro-2H-pyran-3-yl]-6″-chloro-4′-(2-chloro-3-fluoropyridin-4-yl)-4,4-dimethyl-2″-oxo-1″,2″-dihydrodispiro[cyclohexane-1,2′-pyrrolidine-3′,3″-indole]-5′-carboxamide mono(4-methylbenzenesulfonate) monohydrate] | less than 20% | more than 80% | –
2 | CCOc1cc(C(C)(C)C)ccc1C1=N[C@@](C)(c2ccc(Cl)cc2)[C@@](C)(c2ccc(Cl)cc2)N1C(=O)N1CCN(CCCS(C)(=O)=O)CC1 [RG7112] | – | – | clinical responses including complete remissions
